# Data reported in patent US20230183388A1, “EXOPOLY[…] LACTIC ACID BACTERIUM AND USE THEREOF” (Asahi Kohsan Corporation, priority 2017, published 2023).
# Molecular target: T1, hyaluronidase (Bos taurus, UniProt Q2YDK3)
# T1 sequence (Q2YDK3 36-553): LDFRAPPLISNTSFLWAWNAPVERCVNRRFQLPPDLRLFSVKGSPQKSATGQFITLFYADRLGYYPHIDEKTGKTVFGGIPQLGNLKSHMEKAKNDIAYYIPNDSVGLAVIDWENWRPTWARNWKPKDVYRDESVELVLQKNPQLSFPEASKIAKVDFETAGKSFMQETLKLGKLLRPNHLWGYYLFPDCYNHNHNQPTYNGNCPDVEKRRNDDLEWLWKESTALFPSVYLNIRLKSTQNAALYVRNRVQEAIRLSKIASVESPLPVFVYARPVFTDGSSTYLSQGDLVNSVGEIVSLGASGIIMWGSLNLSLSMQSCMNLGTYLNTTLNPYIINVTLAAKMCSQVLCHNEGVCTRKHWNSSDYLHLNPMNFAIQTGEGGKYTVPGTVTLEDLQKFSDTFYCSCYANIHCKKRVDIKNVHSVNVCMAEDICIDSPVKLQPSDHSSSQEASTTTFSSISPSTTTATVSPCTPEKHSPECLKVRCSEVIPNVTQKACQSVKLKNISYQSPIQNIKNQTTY
# Assay: Hyaluronidase activity inhibition of exopolysaccharides
# Type: biochemical
# Details: hyaluronidase enzyme solution (MP Biomedicals), activated with Compound 48/80 and CaCl2, sodium hyaluronate substrate, pH 4.0, 37° C.
# Experimental: 5 μL of a hyaluronidase enzyme solution (MP Biomedicals, 4 mg/mL, 100 mM sodium acetate buffer (pH 4.0)) was added to 10 μL of an aqueous solution containing polysaccharides at an optional concentration, which was prepared from the polysaccharide sample containing the neutral polysaccharide fractions and the acidic polysaccharide fractions, the neutral polysaccharide fractions, and the acidic polysaccharide fractions, which were exopolysaccharides produced by the strain IJH-SONE68 and obtained in Example 4. The resultant mixture was incubated at 37° C. for 20 minutes. Thereafter, to the mixture, 10 μL of an enzyme-activating solution (0.5 mg/ml Compound 48/80 (manufactured by MP Biomedicals)), 3.75 mg CaCl2·2H2O, and 100 mM sodium acetate buffer (pH 4.0)) were added, and incubated again at 37° C. for 20 minutes. Subsequently, to the resultant mixture, 25 μL of a sodium hyaluronate solution (Wako Pure Chemical Industries, 0.8 mg/mL, 100 mM sodium acetate buffer (pH 4.0)) was added, and further reacted at 37° C. for 40 minutes. After the reaction, the reaction was terminated by adding 10 μL of 0.4 M NaOH aqueous solution. […] 40 μL of the reaction solution was mixed with 200 μL of p-DMAB solution (described below), the mixture was reacted at 37° C. for 20 minutes, and the absorbance at 585 nm was then measured. […]
smiles,measurement,value
CC1(C)[C@@H](O[C@H]2O[C@H](C(=O)[O-])[C@@H](O)[C@H](O)[C@H]2O[C@@H]2O[C@H](C(=O)[O-])[C@@H](O)[C@H](O)[C@H]2O)CC[C@]2(C)[C@H]3C(=O)C=C4[C@@H]5C[C@@](C)(C(=O)O)CC[C@]5(C)CC[C@@]4(C)[C@]3(C)CC[C@@H]12.[K+].[K+] [Dipotassium glycyrrhizinate],IC50 (hyaluronidase activity inhibition),530 µg/mL
